In patent publication US20170165286A1, “COMPOSITIONS AND METHODS FOR TREATING DIABETES AND LIVER DISEASES” (Cempra Pharmaceuticals, Inc., priority 2014, published 2017):

Tested on: liver mRNA expression levels
Assay: STAM model: quantitative RT-PCR of liver
Type: in vivo, mice
Method: NASH-HCC (STAM™) Model. C57BL/6 (15-day-pregnant female) mice are obtained from Charles River Laboratories Japan (Kanagawa, Japan). Male pups are selected for the study. NASH is induced in male mice by a single subcutaneous injection of 200 μg streptozotocin (STZ, Sigma-Aldrich, USA) solution 2 days after birth, followed by feeding a HFD (57 kcal % fat, cat#: HFD32, CLEA Japan, Japan) beginning at 4 weeks of age. At 5 weeks of age, mice are divided into a control group and one or more treated group (generally 8 mice per group). Animals are sacrificed at 9 weeks of age, and biochemical, histological, and gene expression analyses are performed.
During weeks 5-9 (starting at day 35±2), test compound is administered (generally orally) at various doses diluted to 10 mL/kg and according to various dosing protocols to treatment groups (8 mice each) while a second group (8 mice) is administered vehicle only. Animals are sacrificed at 9 weeks.
Illustrative dose response test groups. Group 1-Normal. Eight normal mice are fed with a normal diet ad libitum without any treatment until 9 weeks of age. Group 2-Vehicle. Eight NASH mice are orally administered vehicle (0.5% w/v methylcellulose+0.2% Tween®80) in a volume of 10 mL/kg twice daily from 5 to 9 week of age. Group 3-solithromycin 5 mg/kg. Eight NASH mice are orally administered vehicle supplemented with solithromycin at a dose of 5 mg/kg in the morning and the vehicle in the evening (5 mg/kg/day) from 5 to 9 weeks of age. Group 4-solithromycin 10 mg/kg. Eight NASH mice are orally administered vehicle supplemented with solithromycin at a dose of 10 mg/kg twice daily (20 mg/kg/day) from 5 to 9 weeks of age. Group 5-solithromycin 25 mg/kg. Eight NASH mice are orally administered vehicle supplemented with solithromycin at a dose of 25 mg/kg twice daily (50 mg/kg/day) from 5 to 9 weeks of age. Group 6-solithromycin 50 mg/kg. Eight NASH mice are orally administered vehicle supplemented with solithromycin at a dose of 50 mg/kg once daily (50 mg/kg/day) from 5 to 9 weeks of age.
Quantitative RT-PCR. Total RNA is extracted from liver samples using RNAiso (Takara Bio, Japan) according to the manufacturer's instructions. One μg of RNA is reverse-transcribed using a reaction mixture containing 4.4 mM MgCl2 (Roche, Switzerland), 40 U RNase inhibitor (Toyobo, Japan), 0.5 mM dNTP (Promega, USA), 6.28 μM random hexamer (Promega), 5× first strand buffer (Promega), 10 mM dithiothreitol (Invitrogen) and 200 U MMLV-RT (Invitrogen) in a final volume of 20 μL. The reaction is carried out for 1 hour at 37° C., followed by 5 minutes at 99° C. Real-time PCR is performed using real-time PCR DICE and SYBR premix Taq (Takara Bio). To calculate the relative mRNA expression level, the expression of each gene is normalized to that of reference gene 36B4 (gene symbol: Rplp0). PCR-primer sets are described in copending U.S. provisional application No. 62/086,911, the disclosure of which is incorporated herein by reference.

[1] = STAM mice liver, 5 mg/kg, listed as SOLI
[2] = STAM mice liver, 10 mg/kg, listed as SOLI
[3] = STAM mice liver, 25 mg/kg, listed as SOLI

CC[C@H]1OC(=O)[C@@](C)(F)C(=O)[C@H](C)[C@@H](O[C@@H]2O[C@H](C)C[C@H](N(C)C)[C@H]2O)[C@](C)(OC)C[C@@H](C)C(=O)[C@H](C)[C@H]2N(CCCCn3cc(-c4cccc(N)c4)nn3)C(=O)O[C@]12C [solithromycin]
Col1a2/36B4 relative mRNA expression (STAM mice liver, 5 mg/kg): 3.6 ± 1.7 | FBPase/36B4 relative mRNA expression (STAM mice liver, 5 mg/kg): 1.2 ± 0.2 | G6pc/36B4 relative mRNA expression (STAM mice liver, 5 mg/kg): 3.0 ± 0.7 | Gck/36B4 relative mRNA expression (STAM mice liver, 5 mg/kg): 0.5 ± 0.2 | Glut 2/36B4 relative mRNA expression (STAM mice liver, 5 mg/kg): 0.8 ± 0.1 | MCP-1/36B4 relative mRNA expression (STAM mice liver, 5 mg/kg): no statistically significant differences | MMP-9/36B4 relative mRNA expression (STAM mice liver, 5 mg/kg): no statistically significant differences | Pck1/36B4 relative mRNA expression (STAM mice liver, 5 mg/kg): 1.5 ± 0.1 | TGF-β/36B4 relative mRNA expression (STAM mice liver, 5 mg/kg): 2.1 ± 0.4 | TNF-α/36B4 relative mRNA expression (STAM mice liver, 5 mg/kg): 3.1 ± 1.2 | Timp-1/36B4 relative mRNA expression (STAM mice liver, 5 mg/kg): 16.0 ± 15.7 | α-SMA/36B4 relative mRNA expression (STAM mice liver, 5 mg/kg): 3.8 ± 1.9 | MCP-1/36B4 relative mRNA expression [1]: 7.2 ± 4.0 | MMP-9/36B4 relative mRNA expression [1]: 2.9 ± 0.8 | Col1a2/36B4 relative mRNA expression (STAM mice liver, 10 mg/kg): 2.8 ± 1.0 | FBPase/36B4 relative mRNA expression (STAM mice liver, 10 mg/kg): 1.2 ± 0.2 | G6pc/36B4 relative mRNA expression (STAM mice liver, 10 mg/kg): 2.4 ± 0.5 | Gck/36B4 relative mRNA expression (STAM mice liver, 10 mg/kg): 0.4 ± 0.2 | Glut 2/36B4 relative mRNA expression (STAM mice liver, 10 mg/kg): tended to down-regulated | MCP-1/36B4 relative mRNA expression (STAM mice liver, 10 mg/kg): no statistically significant differences | MMP-9/36B4 relative mRNA expression (STAM mice liver, 10 mg/kg): no statistically significant differences | Pck1/36B4 relative mRNA expression (STAM mice liver, 10 mg/kg): 1.5 ± 0.4 | TGF-β/36B4 relative mRNA expression (STAM mice liver, 10 mg/kg): 1.8 ± 0.4 | TNF-α/36B4 relative mRNA expression (STAM mice liver, 10 mg/kg): 3.0 ± 0.7 | Timp-1/36B4 relative mRNA expression (STAM mice liver, 10 mg/kg): 11.9 ± 6.8 | α-SMA/36B4 relative mRNA expression (STAM mice liver, 10 mg/kg): 3.7 ± 1.0 | Glut 2/36B4 relative mRNA expression [2]: 0.8 ± 0.1 | MCP-1/36B4 relative mRNA expression [2]: 5.2 ± 1.9 | MMP-9/36B4 relative mRNA expression [2]: 3.0 ± 1.1 | Col1a2/36B4 relative mRNA expression (STAM mice liver, 25 mg/kg): 2.9 ± 1.2 | FBPase/36B4 relative mRNA expression (STAM mice liver, 25 mg/kg): Statistically significant reduced | G6pc/36B4 relative mRNA expression (STAM mice liver, 25 mg/kg): Statistically significant reduced | Gck/36B4 relative mRNA expression (STAM mice liver, 25 mg/kg): 0.6 ± 0.4 | Glut 2/36B4 relative mRNA expression (STAM mice liver, 25 mg/kg): 0.9 ± 0.1 | MCP-1/36B4 relative mRNA expression (STAM mice liver, 25 mg/kg): no statistically significant differences | MMP-9/36B4 relative mRNA expression (STAM mice liver, 25 mg/kg): no statistically significant differences | Pck1/36B4 relative mRNA expression (STAM mice liver, 25 mg/kg): 1.3 ± 0.6 | TGF-β/36B4 relative mRNA expression (STAM mice liver, 25 mg/kg): 1.8 ± 0.5 | TNF-α/36B4 relative mRNA expression (STAM mice liver, 25 mg/kg): 3.4 ± 1.3 | Timp-1/36B4 relative mRNA expression (STAM mice liver, 25 mg/kg): 11.0 ± 8.6 | α-SMA/36B4 relative mRNA expression (STAM mice liver, 25 mg/kg): 3.3 ± 1.2 | FBPase/36B4 relative mRNA expression [3]: 1.0 ± 0.2 | G6pc/36B4 relative mRNA expression [3]: 1.9 ± 0.7 | MCP-1/36B4 relative mRNA expression [3]: 4.9 ± 1.9 | MMP-9/36B4 relative mRNA expression [3]: 2.6 ± 0.5 | FBPase mRNA expression levels compared to vehicle group (STAM mice liver, all doses): significantly down-regulated | G6pc mRNA expression levels compared to vehicle group (STAM mice liver, all doses): significantly down-regulated | Collagen Type 1 mRNA expression levels compared to vehicle group (STAM mice liver, any doses): no significant differences | Gck mRNA expression levels compared to vehicle group (STAM mice liver, any doses): no significant differences | Pck1 mRNA expression levels compared to vehicle group (STAM mice liver, any doses): no significant differences | TGF-β mRNA expression levels compared to vehicle group (STAM mice liver, any doses): no significant differences | TIMP-1 mRNA expression levels compared to vehicle group (STAM mice liver, any doses): no significant differences | TNF-α mRNA expression levels compared to vehicle group (STAM mice liver, any doses): no significant differences | α-SMA mRNA expression levels compared to vehicle group (STAM mice liver, any doses): no significant differences | Glut 2 mRNA expression levels compared to vehicle group (STAM mice liver, solithromycin groups other than 10 mg/kg): no significant differences | MMP-9 mRNA expression levels in the liver (STAM mice, 50 mg/kg q.d., normalized vehicle 1.00±0.34): 0.59±0.25 | MCP-1 mRNA expression levels in the liver (STAM mice, 50 mg/kg q.d., normalized vehicle 1.00±0.42): 0.64±0.14
